The assay concerns Bovine cardiac myofibrils. Put plainly: Dose-dependent myofibril ATPase modulation (calcium-buffered, pyruvate kinase and lactate dehydrogenase-coupled ATPase assay at pCa25). It is filed as biochemical. As to conditions: concentration at which ATPase activity was 1.4-fold higher than the bottom of the dose curve, mean of a minimum of two independent tests. The method, boiled down: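 Detergent-skinned bovine cardiac myofibrils (typically 0.25-1.0 mg/ml) in a pyruvate kinase/lactate dehydrogenase-coupled ATPase assay, 1 mM ATP, pH 6.80, free Ca2+ set by EGTA buffer to pCa25. ATP hydrolysis followed by A340; 4-parameter fit, AC1.4 as mean of at least two independent tests.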

As for `Cc1[nH]c(S(=O)(=O)N[C@@H]2CCc3c([nH]c4ccccc34)C2)cc1C(=O)NCCF` [Compound 44, (R)-N-(2-fluoroethyl)-2-methyl-5-(N-(2,3,4,9-tetrahydro-1H-carbazol-2-yl)sulfamoyl)-1H-pyrrole-3-carboxamide], the AC1.4 amounted to 0.906 µM.
The same measure for `Cc1[nH]c(S(=O)(=O)N[C@@H]2CCc3c([nH]c4ccccc34)C2)cc1C(=O)NCCO` [Compound 39, (R)-N-(2-hydroxyethyl)-2-methyl-5-(N-(2,3,4,9-tetrahydro-1H-carbazol-2-yl)sulfamoyl)-1H-pyrrole-3-carboxamide]: 1.722 µM; for `CNc1cc2c(cc1S(=O)(=O)N[C@H]1C[C@H](n3cc(C(F)(F)F)c(C)n3)C1)c(=O)[nH]c(=O)n2C` [Compound 61]: 0.3215 µM; for `CNc1cc2nc(C)[nH]c(=O)c2cc1S(=O)(=O)NC1CCN(c2cccc(F)c2)CC1` [Compound 11, N-(1-(3-fluorophenyl)piperidin-4-yl)-2-methyl-7-(methylamino)-4-oxo-3,4-dihydroquinazoline-6-sulfonamide]: 5.252 µM.
In the case of `[2H]C([2H])([2H])c1[nH]c(S(=O)(=O)N[C@@H]2Cc3cc(F)c(Cl)cc3C2)cc1C(=O)N1CC(OC(F)(F)F)C1` [Compound 98, (R)-N-(5-chloro-6-fluoro-2,3-dihydro-1H-inden-2-yl)-5-(methyl-d3)-4-(3-(trifluoromethoxy)azetidine-l-carbonyl)-1H-pyrrole-2-sulfonamide] it was 0.6667 µM; in that of `Cc1[nH]c(S(=O)(=O)N[C@H]2C[C@H](n3cc(C(F)(F)F)cn3)C2)cc1C(=O)N1CC(C#N)C1` [Compound 55, 4-(3-cyanoazetidine-1-carbonyl)-5-methyl-N-((trans)-3-(4-(trifluoromethyl)-1H-pyrazol-1-yl)cyclobutyl)-1H-pyrrole-2-sulfonamide], 5.7638 µM.
In the case of `Cc1[nH]c(S(=O)(=O)N[C@@H]2COc3cc(Cl)ccc3C2)cc1C(=O)N1CC(C)(C#N)C1` [Compound 72, (S)-N-(7-chlorochroman-3-yl)-4-(3-cyano-3-methylazetidine-1-carbonyl)-5-methyl-1H-pyrrole-2-sulfonamide] it was 0.4237 µM; in that of `Cc1cc(S(=O)(=O)N[C@@H]2COc3cc(F)c(Cl)cc3[C@@H]2O)cc(N2CC(C)(C)C2)n1` [Compound 87, N-((3R,4S)-6-chloro-7-fluoro-4-hydroxychroman-3-yl)-2-(3,3-dimethylazetidin-1-yl)-6-methylpyridine-4-sulfonamide], 3.783 µM; in that of `Cc1nc2ccc(S(=O)(=O)Nc3ccc(N4C[C@H](C)C[C@@H](C)C4)nc3)cc2c(=O)[nH]1` [Compound 5, N-(6-((3R,5R)-3,5-dimethylpiperidin-1-yl)pyridin-3-yl)-2-methyl-4-oxo-3,4-dihydroquinazoline-6-sulfonamide], 4.4808 µM.
`CNc1cc2c(cc1S(=O)(=O)NCCCNc1ccccc1)c(=O)[nH]c(=O)n2C` [Compound 13, 1-Methyl-7-(methylamino)-2,4-dioxo-N-(3-(phenylamino)propyl)-1,2,3,4-tetrahydroquinazoline-6-sulfonamide]: the AC1.4 stood at 9.783 µM.
`C[C@@H]1C[C@@H](C)CN(c2ccc(NS(=O)(=O)c3ccc(N(C)C)c(C#N)c3)cn2)C1` (racemic) [Compound 2, 3-Cyano-4-(dimethylamino)-N-(6-(trans-3,5-dimethylpiperidin-l-yl)pyridin-3-yl)benzenesulfonamide]: the AC1.4 was found to be 12.21 µM.
In the case of `Cc1cc(S(=O)(=O)N[C@@H]2COc3cc(F)c(Cl)cc3[C@@H]2O)cc(N2CC(C(F)F)C2)n1` [Compound 90] it was 5.312 µM; in that of `CNc1cc2c(cc1S(=O)(=O)N[C@H]1C[C@@H](Nc3ccccc3F)C1)c(=O)[nH]c(=O)n2C` [Compound 18, N-((cis)-3-((2-fluorophenyl)amino)cyclobutyl)-1-methyl-7-(methylamino)-2,4-dioxo-1,2,3,4-tetrahydroquinazoline-6-sulfonamide], 0.8832 µM; in that of `CNc1cc2c(cc1S(=O)(=O)N[C@H]1[C@@H]3CN(c4cccc(F)c4)C[C@@H]31)c(=O)[nH]c(=O)n2C` [Compound 22, N-((1R,5S,6s)-3-(3-Fluorophenyl)-3-azabicyclo[3.1.0]hexan-6-yl)-1-methyl-7-(methylamino)-2,4-dioxo-1,2,3,4-tetrahydroquinazoline-6-sulfonamide], 0.4479 µM.
The same measure for `Cc1[nH]c(S(=O)(=O)N[C@@H]2CCc3c([nH]c4ccccc34)C2)cc1C(N)=O` [Compound 38, (R)-2-methyl-5-(N-(2,3,4,9-tetrahydro-1H-carbazol-2-yl)sulfamoyl)-1H-pyrrole-3-carboxamide]: 4.3985 µM.

These data come from US20220332708A1 (Cytokinetics, Inc., priority 2021, published 2022).
